# Assay results reported in patent publication US8168779B2, “Anhydrous crystalline β-maltose, its preparation and uses” (priority 2006, dated 2012).
# Columns and labels:
# [1] = mercury filling method; for Intrusion volume: initial pressure 15 kPa; for Median pore diameter / Mode pore diameter: control values originate from space between crystal particles, not pores
# [2] = Deionized water-solidifying test (base for solidifying moisture-containing compositions); format: physicochemical; conditions: 25° C.; for (Appearance) / Condition: after 20 hours from the dissolution; for Time of solidification completed / Time of solidification started: monitored for 2 hours
# Source text: After completing the dissolution, each test solution was further stirred for four minutes and then the stirring was stopped. Successively, each test solution was left to stand and a solidification of the test solution by the crystallization of hydrous crystalline maltose was monitored macroscopically for two hours. In the cases of the solidified samples, the time of starting the crystallization and that of completing the solidification were checked. (However, the test solution dissolving 18.8 g of crystal was stopped stirring at three minutes after the dissolution because the crystallization of hydrous crystalline maltose was started immediately.) After monitoring macroscopically for two hours, each vessel containing any one of the sample solutions was closed and further left to stand for 18 hours. Then, the condition (appearance) of the test samples after 20 hours from the dissolution was monitored macroscopically and evaluated by the following three phases: (1) clear solution; (2) clouded solution; and (3) solidified. The samples prepared by using 10.0 g, 11.5 g, 13.3 g, or 18.8 g of the anhydrous crystalline α-maltose used in Example 2, as a substitute of the test samples, were treated by the same procedure as controls. The test was carried out in a room where a temperature was kept at 25° C. The results of each sample after 2 and 20 hours are shown in Table 5 and FIG. 13, and Table 6 and FIG. 14, respectively.
# [3] = Specific surface area by nitrogen adsorption isotherms (BET); format: physicochemical; conditions: BET method, listed as anhydrous crystalline β-maltose of Control 3
# Procedure: About 3 g of the anhydrous crystalline β-maltose, obtained in Example 1, was dried in the apparatus under a reduced pressure at about 40° C. for about 15 hours as a pretreatment, and then used for the measurement of specific surface area by the nitrogen adsorption isotherms. The result was analyzed by conventional BET (Brunnauer, Emmet, and Teller) method.
# [4] = Hygroscopicity test (moisture content under controlled relative humidity); format: physicochemical; conditions: 27° C.
# Procedure: Moisture contents of the samples at respective periods were measured based on the change of weight from the start of the test. The moisture contents of the samples at the start of the test were measured by Karl Fischer's method.
# [5] = 8.2 g dissolved in 10 g deionized water (45.0%)
# [6] = 8.2 g dissolved in 10 g deionized water (calc. conc. 45.0%)
# [7] = 10.0 g dissolved in 10 g deionized water (50.0%)
# [8] = 10.0 g dissolved in 10 g deionized water (calc. conc. 50.0%)
# [9] = 11.5 g dissolved in 10 g deionized water (53.5%)
# [10] = 11.5 g dissolved in 10 g deionized water (calc. conc. 53.5%)
# [11] = 13.3 g dissolved in 10 g deionized water (calc. conc. 57.0%)
# [12] = 18.8 g dissolved in 10 g deionized water (calc. conc. 65.0%)
compound,measurement,setting,value
OC[C@H]1O[C@H](O[C@H]2[C@H](O)[C@@H](O)[C@H](O)O[C@@H]2CO)[C@H](O)[C@@H](O)[C@@H]1O [Anhydrous crystalline β-maltose converted by the ethanol tre],Intrusion volume,[1],1.05 mL/g
same,Median pore diameter,[1],1.26 μm
same,Mode pore diameter,[1],1.44 μm
same,(Appearance),[2]; [5],(Clear solution)
same,Condition,[2]; [5],Not solidified
same,Time of solidification completed,[2]; [6],Not solidified
same,Time of solidification started,[2]; [6],Not solidified
same,(Appearance),[2]; [7],(Clear solution)
same,Condition,[2]; [7],Not solidified
same,Time of solidification completed,[2]; [8],Not solidified
same,Time of solidification started,[2]; [8],Not solidified
same,(Appearance),[2]; [9],(Clouded solution)
same,Condition,[2]; [9],Not solidified
same,Time of solidification completed,[2]; [10],Not solidified
same,Time of solidification started,[2]; [10],Not solidified
same,Condition,[2]; 13.3 g dissolved in 10 g deionized water (57.0%),Solidified
same,Time of solidification completed,[2]; [11],8.0 min
same,Time of solidification started,[2]; [11],6.0 min
same,Condition,[2]; 18.8 g dissolved in 10 g deionized water (65.0%),Solidified
same,Time of solidification completed,[2]; [12],3.5 min
same,Time of solidification started,[2]; [12],3.0 min
OC[C@H]1O[C@H](O[C@H]2[C@H](O)[C@@H](O)[C@H](O)O[C@@H]2CO)[C@H](O)[C@@H](O)[C@@H]1O [Anhydrous crystalline β-maltose],Specific surface area,[3],0.82 m^2/g
same,Moisture content of samples,"[4]; RH 47% (lithium nitrate), 0 hour (start, Karl Fischer), listed as AC β-Mal (Control 3)","0.24 %, w/w"
same,Moisture content of samples,"[4]; RH 47% (lithium nitrate), 2 hours, listed as AC β-Mal (Control 3)","0.32 %, w/w"
same,Moisture content of samples,"[4]; RH 47% (lithium nitrate), 4 hours, listed as AC β-Mal (Control 3)","0.47 %, w/w"
same,Moisture content of samples,"[4]; RH 47% (lithium nitrate), 24 hours, listed as AC β-Mal (Control 3)","0.54 %, w/w"
same,Moisture content of samples,"[4]; RH 47% (lithium nitrate), 96 hours, listed as AC β-Mal (Control 3)","0.61 %, w/w"
same,Moisture content of samples,"[4]; RH 47% (lithium nitrate), 192 hours, listed as AC β-Mal (Control 3)","0.47 %, w/w"
same,Moisture content of samples,"[4]; RH 58% (sodium bromide), 0 hour (start, Karl Fischer), listed as AC β-Mal (Control 3)","0.24 %, w/w"
same,Moisture content of samples,"[4]; RH 58% (sodium bromide), 2 hours, listed as AC β-Mal (Control 3)","4.68 %, w/w"
same,Moisture content of samples,"[4]; RH 58% (sodium bromide), 4 hours, listed as AC β-Mal (Control 3)","6.92 %, w/w"
same,Moisture content of samples,"[4]; RH 58% (sodium bromide), 6 hours, listed as AC β-Mal (Control 3)","6.71 %, w/w"
same,Moisture content of samples,"[4]; RH 58% (sodium bromide), 8 hours, listed as AC β-Mal (Control 3)","6.28 %, w/w"
same,Moisture content of samples,"[4]; RH 58% (sodium bromide), 24 hours, listed as AC β-Mal (Control 3)","5.63 %, w/w"
same,Moisture content of samples,"[4]; RH 58% (sodium bromide), 96 hours, listed as AC β-Mal (Control 3)","5.48 %, w/w"
same,Moisture content of samples,"[4]; RH 58% (sodium bromide), 192 hours, listed as AC β-Mal (Control 3)","5.42 %, w/w"
same,Moisture content of samples,"[4]; RH 75% (sodium chloride), 0 hour (start, Karl Fischer), listed as AC β-Mal (Control 3)","0.24 %, w/w"
same,Moisture content of samples,"[4]; RH 75% (sodium chloride), 2 hours, listed as AC β-Mal (Control 3)","6.86 %, w/w"
same,Moisture content of samples,"[4]; RH 75% (sodium chloride), 4 hours, listed as AC β-Mal (Control 3)","6.76 %, w/w"
same,Moisture content of samples,"[4]; RH 75% (sodium chloride), 6 hours, listed as AC β-Mal (Control 3)","6.47 %, w/w"
same,Moisture content of samples,"[4]; RH 75% (sodium chloride), 8 hours, listed as AC β-Mal (Control 3)","6.34 %, w/w"
same,Moisture content of samples,"[4]; RH 75% (sodium chloride), 24 hours, listed as AC β-Mal (Control 3)","6.16 %, w/w"
same,Moisture content of samples,"[4]; RH 75% (sodium chloride), 96 hours, listed as AC β-Mal (Control 3)","6.01 %, w/w"
same,Moisture content of samples,"[4]; RH 75% (sodium chloride), 192 hours, listed as AC β-Mal (Control 3)","5.93 %, w/w"
same,Moisture content of samples,"[4]; RH 90% (barium chloride), 0 hour (start, Karl Fischer), listed as AC β-Mal (Control 3)","0.24 %, w/w"
same,Moisture content of samples,"[4]; RH 90% (barium chloride), 2 hours, listed as AC β-Mal (Control 3)","7.28 %, w/w"
same,Moisture content of samples,"[4]; RH 90% (barium chloride), 4 hours, listed as AC β-Mal (Control 3)","7.66 %, w/w"
same,Moisture content of samples,"[4]; RH 90% (barium chloride), 6 hours, listed as AC β-Mal (Control 3)","7.45 %, w/w"
same,Moisture content of samples,"[4]; RH 90% (barium chloride), 8 hours, listed as AC β-Mal (Control 3)","7.45 %, w/w"
same,Moisture content of samples,"[4]; RH 90% (barium chloride), 24 hours, listed as AC β-Mal (Control 3)","8.46 %, w/w"
same,Moisture content of samples,"[4]; RH 90% (barium chloride), 96 hours, listed as AC β-Mal (Control 3)","10.20 %, w/w"
same,Moisture content of samples,"[4]; RH 90% (barium chloride), 192 hours, listed as AC β-Mal (Control 3)","9.12 %, w/w"
"OCC1OC(OC2C(CO)OC(O)C(O)C2O)C(O)C(O)C1O (stereo not drawn) [HC β-Mal (Control 1), Hydrous crystalline β-maltose]",Moisture content of samples,"[4]; RH 47% (lithium nitrate), 0 hour (start, Karl Fischer)","5.24 %, w/w"
same,Moisture content of samples,"[4]; RH 47% (lithium nitrate), 2 hours","5.23 %, w/w"
same,Moisture content of samples,"[4]; RH 47% (lithium nitrate), 4 hours","5.23 %, w/w"
same,Moisture content of samples,"[4]; RH 47% (lithium nitrate), 24 hours","5.23 %, w/w"
same,Moisture content of samples,"[4]; RH 47% (lithium nitrate), 96 hours","5.26 %, w/w"
same,Moisture content of samples,"[4]; RH 47% (lithium nitrate), 192 hours","5.23 %, w/w"
same,Moisture content of samples,"[4]; RH 58% (sodium bromide), 0 hour (start, Karl Fischer)","5.24 %, w/w"
same,Moisture content of samples,"[4]; RH 58% (sodium bromide), 2 hours","5.22 %, w/w"
same,Moisture content of samples,"[4]; RH 58% (sodium bromide), 4 hours","5.25 %, w/w"
same,Moisture content of samples,"[4]; RH 58% (sodium bromide), 6 hours","5.26 %, w/w"
same,Moisture content of samples,"[4]; RH 58% (sodium bromide), 8 hours","5.25 %, w/w"
same,Moisture content of samples,"[4]; RH 58% (sodium bromide), 24 hours","5.25 %, w/w"
same,Moisture content of samples,"[4]; RH 58% (sodium bromide), 96 hours","5.28 %, w/w"
same,Moisture content of samples,"[4]; RH 58% (sodium bromide), 192 hours","5.26 %, w/w"
same,Moisture content of samples,"[4]; RH 75% (sodium chloride), 0 hour (start, Karl Fischer)","5.24 %, w/w"
same,Moisture content of samples,"[4]; RH 75% (sodium chloride), 2 hours","5.21 %, w/w"
same,Moisture content of samples,"[4]; RH 75% (sodium chloride), 4 hours","5.25 %, w/w"
same,Moisture content of samples,"[4]; RH 75% (sodium chloride), 6 hours","5.25 %, w/w"
same,Moisture content of samples,"[4]; RH 75% (sodium chloride), 8 hours","5.25 %, w/w"
same,Moisture content of samples,"[4]; RH 75% (sodium chloride), 24 hours","5.25 %, w/w"
same,Moisture content of samples,"[4]; RH 75% (sodium chloride), 96 hours","5.29 %, w/w"
same,Moisture content of samples,"[4]; RH 75% (sodium chloride), 192 hours","5.23 %, w/w"
same,Moisture content of samples,"[4]; RH 90% (barium chloride), 0 hour (start, Karl Fischer)","5.24 %, w/w"
same,Moisture content of samples,"[4]; RH 90% (barium chloride), 2 hours","5.26 %, w/w"
same,Moisture content of samples,"[4]; RH 90% (barium chloride), 4 hours","5.27 %, w/w"
same,Moisture content of samples,"[4]; RH 90% (barium chloride), 6 hours","5.26 %, w/w"
same,Moisture content of samples,"[4]; RH 90% (barium chloride), 8 hours","5.26 %, w/w"
same,Moisture content of samples,"[4]; RH 90% (barium chloride), 24 hours","5.24 %, w/w"
same,Moisture content of samples,"[4]; RH 90% (barium chloride), 96 hours","5.61 %, w/w"
same,Moisture content of samples,"[4]; RH 90% (barium chloride), 192 hours","5.36 %, w/w"
OC[C@H]1O[C@H](O[C@H]2[C@H](O)[C@@H](O)[C@H](O)O[C@@H]2CO)[C@H](O)[C@@H](O)[C@@H]1O [Anhydrous crystalline β-maltose (Control 3)],Intrusion volume,[1],(No pore)
same,Median pore diameter,[1],14.70 μm
same,Mode pore diameter,[1],25.70 μm
